Measured values reported in article PMC8037809, “Biomimetic Chromatographic Studies Combined with the Computational Approach to Investigate the Ability of Triterpenoid Saponins of Plant Origin to Cross the Blood–Brain Barrier” (International Journal of Molecular Sciences, 2021).
Read-outs that look alike come from different tables or passages of the source.

Tests used:
[1] = parameters: method as in earlier work; details: experimentally obtained; QSAR training and test sets; cited from earlier work
[2] = biomimetic chromatography (BMC, IAM, CHOL) with the QSAR equation, compared with computational logBB; details: for ability to cross the BBB (conclusion): from biomimetic and computational studies
Description: To calculate the logBB values for the tested saponins, the QSAR model previously obtained was used. In this QSAR predictive model the BBB penetration potential was correlated with the lipophilic properties (logPow), excess molar refraction (E), the difference between the logarithms of n-octanol/water and cyclohexane/water partition coefficients values (ΔlogP) being the hydrogen-bonding potential:logBB = −0.114 − 0.098 ΔlogP + 0.278 logPow + 0.218E(2)
Chromatographic biomimetic methods, including IAM, BMC, and CHOL, were used to determine BBB permeability of the tested triterpenoid saponins. For this purpose, the values of logkw, being the logarithm of retention factor extrapolated to pure water, were determined. These values were compared with the logBB values calculated in silico and those obtained using the QSAR model (Equation (2)). Logkw is recognized to be an alternative to the logPow lipophilicity descriptor [96]. On the other hand, lipophilicity is one of the most important features influencing the ability of substances to cross biological barriers.
Moreover, for the micellar biomimetic studies (BMC), Foley’s equation [97] (Equation (3)) was used to calculate important physicochemical parameters, i.e., the analyte–micelle association constant (KMA) and the partition coefficient of the analyte between the stationary phase and water (Psw). These parameters can describe possible interactions in the micellar system since the Brij35 micelle can be treated as a simple model of a biological barrier. (3) 1/k= KMA/PSWΦCM+ 1/PSWΦ where k is the retention factor, CM is the concentration of micelles, KMA is the analyte–micelle association constant, PSW is the partition coefficient of the analyte between the stationary phase and water, and Φ is the volume ratio of the stationary phase to the mobile phase volume.
As mentioned above the logkw parameter, obtained from the biomimetic chromatographic systems, is recognized to be an alternative to the logarithm of the n-octanol/water partition coefficient (logPow) lipophilicity descriptor. Therefore, logkw-BMC, logkw-IAM, and logkw-CHOL values were used for the calculation of logBB based on the QSAR equation (Equation (2)), instead of the logPow parameter. The values of logBB-BMC, logBB-IAM, and logBB-CHOL were thus calculated. In Figure 2 the above-mentioned logBB values and logBB in silico calculated using the ACD/Percepta software, as well as those of logKMA that can be treated as an equivalent to the logBB parameter, are presented.
The solutions of analytical standards of the studied triterpenoid saponins were prepared in methanol (Merck, Darmstadt, Germany; p.a.) at a concentration of 1 mg/mL. […] In the research each system was optimized previously. In the IAM and CHOL studies, acetonitrile-phosphate buffer solutions (0.3; 0.4; 0.5; 0.6 v/v; pH 7.4) were used as mobile phases. In the case of BMC analysis, the buffered solution of Brij35 (0.075; 0.1; 0.125; 0.15 mol/dm^3; pH 7.4) was used as the mobile phase with the addition of isopropanol as an organic modifier (7% v/v). The buffer was prepared from the solutions of Na2HPO4 and citric acid (0.01 mol/dm^3) and the pH 7.4 value was fixed before the preparation of the mobile phases.
The following stationary phases were employed: IAM.PC.DD2 100 × 4.6 mm i.d., 10 µm (Regis Chemicals Company, Morton Grove, IL, USA); Cosmosil Cholester, 75 × 2 mm i.d., 2.5 µm (Genore, Warsaw, Poland); Purosphere RP-18e (ODS), 125 × 4 mm i.d., 5 µm (Merck, Darmstadt, Germany). The flow rates were established as follows: 1.3 mL/min (IAM), 0.4 mL/min (CHOL), and 1 mL/min (BMC). The tested saponins were detected with UV light at 254 nm. All measurements were made at 25 °C. The dead time values were measured from the non-retained compound (citric acid) peaks. All reported logkw values are the average of at least three independent measurements.

[3] = system: memory deficits and anxiety induced by Aβ25-35; details: rats, Aβ25-35 into the lateral ventricles; cited from earlier work
[4] = parameters: method as in doi:10.1556/1326.2017.00147; details: rat, intragastric administration of the extract, postmortem; cited from earlier work
[5] = system: hippocampal CA1 region pyramidal neurons; parameters: method as in PMID 19433075; details: ischemia/reperfusion; cited from earlier work
[6] = system: ethanol-induced memory impairment; parameters: method as in PMID 18521966; details: mice; cited from earlier work

| Structure (SMILES) | logBB [1] | further results |
| --- | --- | --- |
| CN1CC[C@]23c4c5ccc(O)c4O[C@H]2[C@@H](O)C=C[C@H]3[C@H]1C5.Cl [52-26-6] | –0.16 | – |
| C=CCC1(C(C)CCC)C(=O)NC(=O)NC1=O (stereo not shown) [76-73-3] | 0.2 | – |
| CNC(C)CC1CCCCC1 (stereo not shown) [101-40-6] | 1.08 | – |
| CN1C(=O)CN=C(c2ccccc2)c2cc(Cl)ccc21 [439-14-5] | 0.56 | – |
| Cc1cc(Cl)ccc1NC1=NCCN1 [4201-26-7] | 0.14 | – |
| Clc1ccc(NC2=NCCN2)c(Cl)c1 [23830-88-8] | 0.16 | – |
| CC(C)NCC(O)COc1ccc(CC(N)=O)cc1 (stereo not shown) [29122-68-7] | –1 | – |
| Cc1ccccc1NC1=NCCN1 [36318-56-6] | 0.04 | – |
| Brc1cc(Br)c(NC2=NCCN2)c(Br)c1 [38941-33-2] | 0.58 | – |
| CN(C)C(=O)C(CCN1CCC(O)(c2ccc(Cl)cc2)CC1)(c1ccccc1)c1ccccc1 [53179-11-6] | 0.77 | – |
| CC(C)NCC(O)COc1ccc(CCOCC2CC2)cc1 (stereo not shown) [63659-18-7] | 0.39 | – |
| COc1ccc2nc([S+]([O-])Cc3ncc(C)c(OC)c3C)[nH]c2c1 (stereo not shown) [73590-58-6] | –0.82 | – |
| Cc1ccc(Cc2cnc(NCCSCc3ccc(CN(C)C)o3)[nH]c2=O)cn1 [83903-06-4] | –1.06 | – |
| O=C(CCC1CCN(Cc2ccccc2)CC1)c1ccc2c(c1)NCCCC2 [142852-50-4] | 1.14 | – |
| Cc1c(O)cccc1C(=O)N[C@@H](CSc1ccccc1)[C@H](O)CN1C[C@H]2CCCC[C@H]2C[C@H]1C(=O)NC(C)(C)C [159989-64-7] | –0.93 | – |
| CC1(C)CCC2(C(=O)OC3OC(COC4OC(CO)C(O)C(O)C4O)C(O)C(O)C3O)CCC3(C)C(=CCC4C5(C)CCC(OC6OCC(O)C(O)C6O)C(C)(CO)C5CCC43C)C2C1 (stereo not shown) [Akebia saponin D] | – | ability to cross the BBB (conclusion) [2]: can penetrate the BBB; effect on memory deficits and anxiety symptoms [3]: could significantly ameliorate the memory deficits and anxiety symptoms |
| CC1(C)CC[C@]2(C(=O)O)CC[C@]3(C)C(=CC[C@@H]4[C@@]5(C)C[C@@H](O)[C@H](O)C(C)(C)[C@@H]5CC[C@]43C)[C@@H]2[C@@H]1O [Arjunic acid] | – | ability to cross the BBB (conclusion) [2]: can penetrate the BBB; presence in brain tissues [4]: present in rat brain tissues |
| CC(C)=C[C@H]1C[C@](C)(O)[C@@H]2[C@H]3CC[C@@H]4[C@@]5(C)CC[C@H](O[C@@H]6O[C@H](CO)[C@@H](O)[C@H](O[C@@H]7O[C@H](CO)[C@@H](O)[C@H](O)[C@H]7O)[C@H]6O[C@@H]6O[C@@H](CO)[C@H](O)[C@H]6O)C(C)(C)[C@@H]5CC[C@@]4(C)[C@@]34CO[C@@]2(C4)O1 [Bacoside A] | – | ability to cross the BBB (conclusion) [2]: can penetrate the BBB |
| C[C@@H]1O[C@@H](O[C@H]2[C@H](OC(=O)[C@]34CCC(C)(C)C[C@H]3C3=CC[C@@H]5[C@@]6(C)C[C@H](O)[C@H](O[C@@H]7O[C@H](CO)[C@@H](O)[C@H](O)[C@H]7O)C(CO)(CO)[C@@H]6CC[C@@]5(C)[C@]3(C)C[C@H]4O)OC[C@H](O)[C@@H]2O)[C@H](O)[C@H](O)[C@H]1O[C@@H]1OC[C@@H](O)[C@H](O[C@@H]2OC[C@](O)(CO)[C@H]2O)[C@H]1O [Platycodin D] | – | protection from ischemic damage [5]: protects the hippocampal CA1 region pyramidal neurons from an ischemic damage; average logBB ([2]; average of all obtained logBB values (biomimetic and computational)): −1.681; ability to cross the BBB (conclusion) [2]: does not cross this barrier; logBB ([2]; span of the obtained values over the methods): −2 to −1.29; effect on ethanol-induced memory impairment [6]: could improve ethanol-induced memory impairment |
